From patent US11634395B2, “Sulfonamide compound or salt thereof” (Taiho Pharmaceutical Co., Ltd., priority 2016, dated 2023)
Where two headings read alike, the source gives them in different places.

Target: Human RNR (human M1 subunit and human M2 subunit) (Homo sapiens (Human), UniProt P23921)
Test: Human RNR inhibition effect (formation of dCDP from CDP, HPLC)
Type: biochemical
Settings: 10 μM CDP, 37° C. for 30 minutes, read-out: RNR Enzyme inhibitory activity IC50
Procedure: The inhibitory activity against the ribonucleotide reduction reaction (hereinafter referred to as RNR reaction) of the test compound was determined by measuring the formation of deoxycytidine diphosphate (hereinafter referred to as dCDP) from cytidine diphosphate (hereinafter referred to as CDP) by the following method.
Human M1 subunit and human M2 subunit (mutant lacking amino terminal 59 amino acids), which are fused a histidine tag at the amino terminus, are overexpressed in Escherichia coli and are solubilized after collection, and histidine tagged human M1 and M2 proteins were purified on a nickel chelate column.
First, test compounds were serially diluted with DMSO. Next, human M1 protein and human M2 protein were added to an aqueous albumin solution derived from 0.02% fetal bovine serum, a DMSO solution of the compound of the present invention or the control DMSO solution (final concentration of DMSO was 1%) was added, and the mixture was allowed to stand for 20 minutes. Thereafter, the reaction buffer [50 mM HEPES buffer (pH 7.2) at the final concentration, 4 mM magnesium acetate at the final concentration, 100 mM potassium chloride at the final concentration, 6 mM dithiothreitol at the final concentration, 2 mM adenosine triphosphate at the final concentration, 0.24 mM nicotinamide adenine dinucleotide phosphate at final concentration] and 10 μM CDP at the final concentration were added and incubated at 37° C. for 30 minutes to perform RNR reaction. Immediately after the reaction, the reaction was stopped by heating at 100° C. for 15 minutes, followed by centrifugation at 10,000 rpm for 10 minutes. After the centrifugation, a portion (5 μL) of the resulting supernatant was analyzed with a high performance liquid chromatography (Shimadzu Corporation, Prominence) using Shim-pack XR-ODS (manufactured by Shimadzu GLC Co., 3.0×100 mm).

Sequence of Human RNR (human M1 subunit and human M2 subunit) (P23921 whole entry): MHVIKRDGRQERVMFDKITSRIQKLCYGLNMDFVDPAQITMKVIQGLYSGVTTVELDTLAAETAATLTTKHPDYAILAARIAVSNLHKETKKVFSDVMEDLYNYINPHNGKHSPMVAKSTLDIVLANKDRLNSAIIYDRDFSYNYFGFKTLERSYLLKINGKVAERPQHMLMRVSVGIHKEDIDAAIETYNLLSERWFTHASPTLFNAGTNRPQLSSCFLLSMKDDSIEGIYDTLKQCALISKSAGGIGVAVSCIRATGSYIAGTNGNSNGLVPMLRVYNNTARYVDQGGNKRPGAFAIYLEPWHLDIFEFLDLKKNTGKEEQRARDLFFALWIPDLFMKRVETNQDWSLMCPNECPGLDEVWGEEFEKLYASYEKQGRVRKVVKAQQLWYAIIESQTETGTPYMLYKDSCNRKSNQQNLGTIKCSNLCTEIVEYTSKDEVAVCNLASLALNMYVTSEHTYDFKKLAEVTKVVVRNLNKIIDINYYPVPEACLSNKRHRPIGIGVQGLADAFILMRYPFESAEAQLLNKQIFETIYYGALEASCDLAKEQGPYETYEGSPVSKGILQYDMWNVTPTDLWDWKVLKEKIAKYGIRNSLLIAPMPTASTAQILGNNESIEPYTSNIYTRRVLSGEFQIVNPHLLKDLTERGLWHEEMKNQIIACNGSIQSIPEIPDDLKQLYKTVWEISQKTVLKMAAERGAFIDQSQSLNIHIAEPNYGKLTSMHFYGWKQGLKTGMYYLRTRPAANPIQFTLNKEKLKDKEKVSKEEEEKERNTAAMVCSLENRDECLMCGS

| SMILES | IC50 (human M1 and M2 proteins) | IC50 (human M1 and M2 subunits, formation of dCDP from CDP) |
| --- | --- | --- |
| [2H]C([2H])([2H])C1(O)CCOc2c(S(=O)(=O)N[C@H](c3n[nH]c(=O)o3)[C@H](C)c3c(F)ccc(C)c3C)ccc(Cl)c21 (single isomer, unassigned) [Example 200A] | 30 nM | – |
| [2H]C([2H])([2H])C1(O)CCOc2c(S(=O)(=O)N[C@H](c3n[nH]c(=O)o3)[C@H](C)c3c(F)ccc(C)c3C)ccc(Cl)c21 (single isomer, unassigned) [Example 200B] | 80 nM | – |
| Cc1ccc(F)c([C@@H](C)[C@H](NS(=O)(=O)c2ccc(Cl)c3c2OCCC3(C)O)c2n[nH]c(=O)o2)c1C (single isomer, unassigned) [Example 207A] | 130 nM | – |
| Cc1ccc(F)c([C@@H](C)[C@H](NS(=O)(=O)c2ccc(Cl)c3c2OCCC3(C)O)c2n[nH]c(=O)o2)c1C (single isomer, unassigned) [Example 207B] | 90 nM | – |
| COc1c(S(=O)(=O)N[C@H](c2n[nH]c(=O)o2)[C@H](C)c2c(F)ccc(C)c2C)ccc(Cl)c1C(C)O (single isomer, unassigned) [Example 208A] | 100 nM | – |
| COc1c(S(=O)(=O)N[C@H](c2n[nH]c(=O)o2)[C@H](C)c2c(F)ccc(C)c2C)ccc(Cl)c1C(C)O (single isomer, unassigned) [Example 208B] | 60 nM | – |
| Cc1c(Cl)ccc(F)c1[C@@H](C)[C@H](NS(=O)(=O)c1ccc(Cl)c2c1OCCC2(C)O)c1n[nH]c(=O)o1 (single isomer, unassigned) [Example 209A] | 100 nM | – |
| Cc1c(Cl)ccc(F)c1[C@@H](C)[C@H](NS(=O)(=O)c1ccc(Cl)c2c1OCCC2(C)O)c1n[nH]c(=O)o1 (single isomer, unassigned) [Example 209B] | 180 nM | – |
| Cc1ccc(F)c([C@@H](C)[C@H](NS(=O)(=O)c2ccc(Cl)c3c2OCCC3(O)C(F)(F)F)c2n[nH]c(=O)o2)c1C (single isomer, unassigned) [Example 220A] | 60 nM | – |
| Cc1ccc(F)c([C@@H](C)[C@H](NS(=O)(=O)c2ccc(Cl)c3c2OCCC3(O)C(F)(F)F)c2n[nH]c(=O)o2)c1C (single isomer, unassigned) [Example 220B] | 80 nM | – |
| Cc1c(Br)ccc(F)c1[C@@H](C)[C@H](NS(=O)(=O)c1ccc(Cl)c2c1OCCC2(C)O)c1n[nH]c(=O)o1 (single isomer, unassigned) [Example 222A] | 80 nM | – |
| Cc1c(Br)ccc(F)c1[C@@H](C)[C@H](NS(=O)(=O)c1ccc(Cl)c2c1OCCC2(C)O)c1n[nH]c(=O)o1 (single isomer, unassigned) [Example 222B] | 60 nM | – |
| Cc1ccc(F)c([C@@H](C)[C@H](NS(=O)(=O)c2ccc(F)c3c2OCCC3(C)O)c2n[nH]c(=O)o2)c1C (single isomer, unassigned) [Example 224B] | 100 nM | – |
| [2H]C([2H])([2H])C1(O)CCOc2c(S(=O)(=O)N[C@H](c3n[nH]c(=O)o3)[C@H](C)c3c(F)ccc(Br)c3C)ccc(Cl)c21 (single isomer, unassigned) [Example 226A] | 50 nM | – |
| [2H]C([2H])([2H])C1(O)CCOc2c(S(=O)(=O)N[C@H](c3n[nH]c(=O)o3)[C@H](C)c3c(F)ccc(Br)c3C)ccc(Cl)c21 (single isomer, unassigned) [Example 226B] | 70 nM | – |
| Cc1c(Br)ccc(F)c1[C@@H](C)[C@H](NS(=O)(=O)c1ccc(F)c2c1OCCC2(C)O)c1n[nH]c(=O)o1 (single isomer, unassigned) [Example 227A] | 50 nM | – |
| Cc1c(Br)ccc(F)c1[C@@H](C)[C@H](NS(=O)(=O)c1ccc(F)c2c1OCCC2(C)O)c1n[nH]c(=O)o1 (single isomer, unassigned) [Example 227B] | 90 nM | – |
| [2H]C([2H])([2H])C1(O)CCOc2c(S(=O)(=O)N[C@H](c3n[nH]c(=O)o3)[C@H](C)c3c(F)ccc(Cl)c3C)ccc(Cl)c21 (single isomer, unassigned) [Example 228A] | 80 nM | – |

| SMILES | IC50 (human M1 and M2 proteins) | IC50 (human M1 and M2 subunits, formation of dCDP from CDP) |
| --- | --- | --- |
| [2H]C([2H])([2H])C1(O)CCOc2c(S(=O)(=O)N[C@H](c3n[nH]c(=O)o3)[C@H](C)c3c(F)ccc(Cl)c3C)ccc(Cl)c21 (single isomer, unassigned) [Example 228B] | 140 nM | – |
| Cc1c(Cl)ccc(F)c1[C@@H](C)[C@H](NS(=O)(=O)c1ccc(F)c2c1OCCC2(C)O)c1n[nH]c(=O)o1 (single isomer, unassigned) [Example 229A] | 60 nM | – |
| Cc1c(Cl)ccc(F)c1[C@@H](C)[C@H](NS(=O)(=O)c1ccc(F)c2c1OCCC2(C)O)c1n[nH]c(=O)o1 (single isomer, unassigned) [Example 229B] | 110 nM | – |
| Cc1ccc(F)c([C@@H](C)[C@H](NS(=O)(=O)c2ccc(F)c3c2OCCC3O)c2n[nH]c(=O)o2)c1C (single isomer, unassigned) [Example 230A] | 120 nM | – |
| Cc1ccc(F)c([C@@H](C)[C@H](NS(=O)(=O)c2ccc(F)c3c2OCCC3O)c2n[nH]c(=O)o2)c1C (single isomer, unassigned) [Example 230B] | 50 nM | – |
| C[C@H](c1c(F)ccc2ccccc12)[C@H](NS(=O)(=O)c1ccc(Cl)c2c1OCCC2O)c1n[nH]c(=O)o1 (single isomer, unassigned) [Example 234A] | 310 nM | – |
| Cc1ccc(F)c([C@@H](C)[C@H](NS(=O)(=O)c2ccc(Cl)c3c2OCCC3O)c2n[nH]c(=O)o2)c1C (single isomer, unassigned) [Example 235A] | 80 nM | – |
| Cc1ccc(F)c([C@@H](C)[C@H](NS(=O)(=O)c2ccc(Cl)c3c2OCCC3O)c2n[nH]c(=O)o2)c1C (single isomer, unassigned) [Example 235B] | 70 nM | – |
| Cc1ccc(F)c([C@@H](C)[C@H](NS(=O)(=O)c2cccc3c2OC(C)(C)CC3O)c2n[nH]c(=O)o2)c1C (single isomer, unassigned) [Example 237A] | 290 nM | – |
| CCc1ccc(F)c([C@@H](C)[C@H](NS(=O)(=O)c2ccc(Cl)c3c2OCCC3O)c2n[nH]c(=O)o2)c1C (single isomer, unassigned) [Example 239A] | 200 nM | – |
| Cc1c(Br)ccc(F)c1[C@@H](C)[C@H](NS(=O)(=O)c1ccc(Cl)c2c1OCCC2O)c1n[nH]c(=O)o1 (single isomer, unassigned) [Example 243A] | 70 nM | – |
| Cc1c(Br)ccc(F)c1[C@@H](C)[C@H](NS(=O)(=O)c1ccc(Cl)c2c1OCCC2O)c1n[nH]c(=O)o1 (single isomer, unassigned) [Example 243B] | 100 nM | – |
| Cc1ccc(F)c([C@@H](C)[C@H](NS(=O)(=O)c2ccc(C(F)(F)F)c3c2OCCC3O)c2n[nH]c(=O)o2)c1C (single isomer, unassigned) [Example 244A] | 90 nM | – |
| Cc1ccc(F)c([C@@H](C)[C@H](NS(=O)(=O)c2ccc(C(F)(F)F)c3c2OCCC3O)c2n[nH]c(=O)o2)c1C (single isomer, unassigned) [Example 244B] | 220 nM | – |
| Cc1c(Cl)ccc(F)c1[C@@H](C)[C@H](NS(=O)(=O)c1ccc(Cl)c2c1OCCC2(C)N)c1n[nH]c(=O)o1 (single isomer, unassigned) [Example 330A] | 120 nM | – |
| Cc1c(Cl)ccc(F)c1[C@@H](C)[C@H](NS(=O)(=O)c1ccc(Cl)c2c1OCCC2(C)N)c1n[nH]c(=O)o1 (single isomer, unassigned) [Example 330B] | 460 nM | – |
| C=C(c1c(F)ccc(C)c1C)[C@H](NS(=O)(=O)c1ccc(Cl)cc1OC)c1n[nH]c(=O)o1 [Example 185, (S)-4-chloro-N-(2-(6-fluoro-2,3-dimethylphenyl)-1-(5-oxo-4,5-dihydro-1,3,4-oxadiazol-2-yl)allyl)-2-methoxybenzenesulfonamide] | – | 600 nM |
| Cc1c(Cl)ccc(F)c1[C@@H](C)[C@H](NS(=O)(=O)c1ccc(Cl)c2c1OCCC2O)c1n[nH]c(=O)o1 (stereo partly drawn) [Example 238A, 5-chloro-N-((1S,2R)-2-(3-chloro-6-fluoro-2-methylphenyl)-1-(5-oxo-4,5-dihydro-1,3,4-oxadiazol-2-yl)propyl)-4-hydroxychroman-8-sulfonamide] | 110 nM | – |
